Experimental data published in the supplement of paper PMC4862054.

Assays:
Settings in all cases: incubation time: 72 h
[1] = system: MDA-MB-231; assay: normalised response (% of control), CellTiter-Glo; higher = more viable cells (100 = DMSO, 0 = benzethonium chloride kill control)
Summary of the method: (§1)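 The table gives the normalised signal for a single concentration in each entry. Breast cancer cell lines were seeded (20 µl suspension) into 384-well plates holding compound at 5 concentrations in 10-fold steps over a compound-specific 10,000-fold range and incubated 72 h, then read for CellTox Green fluorescence (485/520 nm) and CellTiter-Glo luminescence. Normalisation on each plate used 0.1 % DMSO (100) and a positive kill control (0).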

[2] = system: MDA-MB-468; assay: as above
Summary of the method: as §1

[3] = system: HCC1143; assay: as above
Summary of the method: as §1

[4] = system: CAL-85-1; assay: as above
Summary of the method: as §1

[5] = system: MDA-MB-453; assay: as above
Summary of the method: as §1

[6] = system: MFM-223; assay: as above
Summary of the method: as §1

[7] = system: HCC1599; assay: as above
Summary of the method: as §1

[8] = system: Hs578T; assay: as above
Summary of the method: as §1

[9] = system: BT-549; assay: as above
Summary of the method: as §1

[10] = system: HDQ-P1; assay: as above
Summary of the method: as §1

[11] = system: BT-474; assay: as above
Summary of the method: as §1

[12] = system: SK-BR-3; assay: as above
Summary of the method: as §1

[13] = system: DU-4475; assay: as above
Summary of the method: as §1

[14] = system: MDA-MB-436; assay: as above
Summary of the method: as §1

[15] = system: CAL-120; assay: as above
Summary of the method: as §1

[16] = system: CAL-148; assay: as above
Summary of the method: as §1

[17] = system: HCC1937; assay: as above
Summary of the method: as §1

[18] = system: MCF-10A; assay: as above
Summary of the method: as §1

[19] = system: CAL-51; assay: as above
Summary of the method: as §1

[20] = system: MDA-MB-231; assay: normalised response (% of control), CellTox Green; higher = less cell death (100 = DMSO, 0 = benzethonium chloride kill control)
Summary of the method: as §1

[21] = system: MDA-MB-468; assay: as above
Summary of the method: as §1

[22] = system: HCC1143; assay: as above
Summary of the method: as §1

[23] = system: CAL-85-1; assay: as above
Summary of the method: as §1

[24] = system: MDA-MB-453; assay: as above
Summary of the method: as §1

[25] = system: MFM-223; assay: as above
Summary of the method: as §1

[26] = system: HCC1599; assay: as above
Summary of the method: as §1

[27] = system: Hs578T; assay: as above
Summary of the method: as §1

[28] = system: BT-549; assay: as above
Summary of the method: as §1

[29] = system: HDQ-P1; assay: as above
Summary of the method: as §1

[30] = system: BT-474; assay: as above
Summary of the method: as §1

[31] = system: DU-4475; assay: as above
Summary of the method: as §1

[32] = system: MDA-MB-436; assay: as above
Summary of the method: as §1

[33] = system: CAL-120; assay: as above
Summary of the method: as §1

[34] = system: CAL-148; assay: as above
Summary of the method: as §1

[35] = system: HCC1937; assay: as above
Summary of the method: as §1

[36] = system: MCF-10A; assay: as above
Summary of the method: as §1

[37] = system: CAL-51; assay: as above
Summary of the method: as §1

Structure (SMILES) | normalised response [1] [%] | normalised response [2] [%] | normalised response [3] [%] | normalised response [4] [%] | normalised response [5] [%] | normalised response [6] [%] | normalised response [7] [%] | normalised response [8] [%] | normalised response [9] [%] | normalised response [10] [%] | normalised response [11] [%] | normalised response [12] [%] | normalised response [13] [%] | normalised response [14] [%] | normalised response [15] [%] | normalised response [16] [%] | normalised response [17] [%] | normalised response [18] [%] | normalised response [19] [%] | normalised response [20] [%] | normalised response [21] [%] | normalised response [22] [%] | normalised response [23] [%] | normalised response [24] [%] | normalised response [25] [%] | normalised response [26] [%] | normalised response [27] [%] | normalised response [28] [%] | normalised response [29] [%] | normalised response [30] [%] | normalised response [31] [%] | normalised response [32] [%] | normalised response [33] [%] | normalised response [34] [%] | normalised response [35] [%] | normalised response [36] [%] | normalised response [37] [%]
CC(=O)Nc1ccc(C(=O)Nc2ccccc2N)cc1 [Tacedinaline] (10 nM) | 98.5 | 104 | 99.7 | 103 | 107 | 101 | 104 | 90.1 | 102 | 96.1 | 101 | 95.3 | 99.6 | 96.9 | 102 | 105 | 94.8 | 101 | 86.8 | 108 | 133 | 96.9 | 105 | 89.7 | 97.2 | 99.9 | 106 | 85.9 | 104 | 96.6 | 101 | 80.4 | 98.8 | 95 | 97.9 | 104 | 83.3
C[C@@H](Oc1cc(-c2cnn(C3CCNCC3)c2)cnc1N)c1c(Cl)ccc(F)c1Cl [Crizotinib] (10 nM) | 104 | 92.7 | 102 | 93.5 | 107 | 99.3 | 97.4 | 99.9 | 96.7 | 93.6 | 102 | 97.3 | 103 | 99 | 100 | 100 | 98.2 | 101 | 57.6 | 88.4 | 230 | 89.3 | 89.3 | 105 | 105 | 109 | 105 | 98.6 | 96.1 | 100 | 103 | 65.4 | 107 | 102 | 90.5 | 80.3 | 84.9
Cc1ccc(-n2nc(C(C)(C)C)cc2NC(=O)Nc2ccc(OCCN3CCOCC3)c3ccccc23)cc1 [Doramapimod] (100 nM) | 96.5 | 89.6 | 97.1 | 92.4 | 99.4 | 91.8 | 93.7 | 98.7 | 106 | 93 | 94.2 | 90.8 | 93.7 | 100 | 99.4 | 79.7 | 89.9 | 85.3 | 99.5 | 82.1 | 89 | 104 | 85.4 | 98.1 | 99.4 | 97.4 | 105 | 77.5 | 101 | 94.5 | 97.7 | 98.5 | 95.8 | 100 | 97 | 93.5 | 101
O=C(O)c1ccc(-c2c[nH]c3ncc(-c4ccccc4)cc23)cc1C1CCCC1 (100 nM) | 97.3 | 90.6 | 102 | 101 | 97.6 | 96.2 | 89.5 | 103 | 101 | 96.7 | 93.8 | 97.2 | 98.2 | 89.5 | 97.9 | 88 | 97.1 | 93.1 | 64.1 | 89.3 | 108 | 83.7 | 108 | 95.8 | 101 | 98.6 | 89.5 | 83.6 | 99 | 99.5 | 95.1 | 95.5 | 95 | 101 | 107 | 97.3 | 84.6
CN(C)/N=N/c1[nH]cnc1C(N)=O [Dacarbazine] (100 nM) | 107 | 100 | 112 | 106 | 103 | 105 | 92 | 103 | 115 | 98.5 | 96.8 | 107 | 105 | 102 | 101 | 105 | 102 | 100 | 101 | 101 | 85.4 | 82.8 | 105 | 99.6 | 105 | 101 | 79.5 | 96.7 | 105 | 101 | 102 | 100 | 101 | 106 | 106 | 107 | 110
CN[C@@H]1C[C@H]2O[C@@](C)([C@@H]1OC)n1c3ccccc3c3c4c(c5c6ccccc6n2c5c31)C(=O)N[C@H]4O [UCN-01] (100 nM) | 25 | 48.2 | 63.1 | 44.2 | 62.4 | 70.9 | 14.1 | 19.5 | 52.1 | 68.3 | 33.1 | 39.4 | 77.8 | 52 | 37 | 109 | 54.4 | 24 | 39 | 40.7 | 76.9 | 84.4 | 54.8 | 90.4 | 80.2 | 85.5 | 55 | 62.6 | 50.5 | 80.8 | 91.2 | 77.1 | 88.8 | 86 | 92.9 | 75.5 | 56.1
O=C1CCC(N2C(=O)c3ccccc3C2=O)C(=O)N1 (stereo unspecified) [Thalidomide] (100 nM) | 95.6 | 93.6 | 95.9 | 95.6 | 101 | 95.7 | 99.6 | 94.5 | 98.3 | 105 | 103 | 97.7 | 102 | 101 | 95.2 | 97.4 | 98.1 | 98.9 | 100 | 106 | 127 | 103 | 107 | 104 | 99.8 | 96.6 | 94.8 | 106 | 95.2 | 102 | 101 | 97.9 | 98.8 | 79.1 | 87.4 | 109 | 103
N#CCNC(=O)c1ccc(-c2ccnc(Nc3ccc(N4CCOCC4)cc3)n2)cc1 [Momelotinib] (100 nM) | 94.8 | 90 | 117 | 101 | 110 | 94.8 | 112 | 102 | 102 | 105 | 92.1 | 95.9 | 95.9 | 99.1 | 97.2 | 94.1 | 97.8 | 85.6 | 70.4 | 53.8 | 168 | 78.1 | 102 | 101 | 81.4 | 89.7 | 93.5 | 104 | 102 | 100 | 97.5 | 104 | 98.2 | 97.8 | 94.6 | 66.3 | 83
